# Experimental data reported in patent US8865448B2, “Aspergillus containing beta-glucosidase, beta-glucosidases and nucleic acids encoding the same” (Cleanvantage LLC, priority 2010, dated 2014).
# T1: Aspergillus saccharolyticus CBS 127449 beta-glucosidase BGL1, his-tagged, expressed in T. reesei, SEQ ID NO: 3 (without signal peptide SEQ ID NO: 4) (Aspergillus saccharolyticus, UniProt G0X2F9)
# T1 construct: mature form lacks signal peptide 1-19
# T1 sequence (G0X2F9 20-860): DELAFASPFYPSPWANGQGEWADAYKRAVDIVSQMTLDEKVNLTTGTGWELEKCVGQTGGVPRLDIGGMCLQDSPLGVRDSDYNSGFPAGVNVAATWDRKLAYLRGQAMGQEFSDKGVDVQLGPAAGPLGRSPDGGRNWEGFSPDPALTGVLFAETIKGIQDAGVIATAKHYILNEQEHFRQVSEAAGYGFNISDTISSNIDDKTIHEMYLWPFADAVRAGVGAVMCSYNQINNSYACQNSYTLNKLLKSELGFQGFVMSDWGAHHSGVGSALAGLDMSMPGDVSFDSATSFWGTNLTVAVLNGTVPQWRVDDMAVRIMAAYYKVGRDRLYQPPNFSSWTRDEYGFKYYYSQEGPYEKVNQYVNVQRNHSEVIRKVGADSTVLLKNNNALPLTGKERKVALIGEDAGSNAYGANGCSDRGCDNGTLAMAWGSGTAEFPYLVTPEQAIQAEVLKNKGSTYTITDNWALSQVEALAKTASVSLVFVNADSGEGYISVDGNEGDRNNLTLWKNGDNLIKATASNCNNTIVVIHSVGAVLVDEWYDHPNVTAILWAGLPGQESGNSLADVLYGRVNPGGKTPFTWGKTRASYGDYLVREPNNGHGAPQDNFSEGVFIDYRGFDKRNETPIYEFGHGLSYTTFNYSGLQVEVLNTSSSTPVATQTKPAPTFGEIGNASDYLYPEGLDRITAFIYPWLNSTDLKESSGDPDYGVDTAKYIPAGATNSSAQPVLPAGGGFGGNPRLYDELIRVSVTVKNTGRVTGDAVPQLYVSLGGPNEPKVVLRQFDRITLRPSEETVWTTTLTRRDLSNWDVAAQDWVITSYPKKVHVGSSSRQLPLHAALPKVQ
# B1: Aspergillus saccharolyticus CBS 127449 beta-glucosidase BGL1, his-tagged, expressed in T. reesei, SEQ ID NO: 3 (without signal peptide SEQ ID NO: 4) … (protein)
# chain: T1 sequence (G0X2F9 20-860)
# B2: BGL1: GH family 3 beta-glucosidase of Aspergillus saccharolyticus; his-tagged, expressed in T. reesei and purified for characterisation (protein, listed as Aspergillus saccharolyticus)
# chain: T1 sequence (G0X2F9 20-860)
# modifications: His tag
# notes: GH family 3 beta-glucosidase of Aspergillus saccharolyticus; his-tagged, expressed in T. reesei and purified for characterisation
# What was measured:
# [1] = tested on: Aspergillus saccharolyticus (strain AP, CBS 127449) beta-glucosidases, crude enzyme extract; assay: Glucose tolerance / product inhibition, crude extract of strain AP; type: biochemical
# Method: The fungal strain AP/Aspergillus saccharolyticus was grown on potato dextrose agar (Sigma) for sporulation. Spores were harvested after 7 days of growth by adding sterile water to the plate and scrape on the surface of the culture. The heavy spore suspension was filtered through Myra cloth. Two ml of the spore solution was inoculated into 200 ml seed medium (2.0 g/l wheat bran, 5 g/l corn steep powder, 0.25 g/l yeast extract, 0.75 g/l peptone, 1.4 g/l (NH4)2SO4, 2.0 g/l KH2PO4, 0.4 g/l CaCl2 2H2O, 0.3 g/l MgSO4H2O, 5.0 mg/l FeSO4, 1.6 mg/l MnSO4 7H2O, 1.4 mg/l ZnSO4 7H2O, 2.0 CoCl2 6H2O) in an 500 ml Erlenmeyer flask, and incubated at 30° C. for 2 days, shaking at 160 rpm. Solid state fermentation at approximately 30% TS was carried out adding 100 ml of the cultivated seed medium to 1 l of a solid state fermentation medium comprising of 343 g wheat bran (TS of 87.4%), 9 g corn steep powder, 557 ml Czapek liquid (3 g/l NaNO3, 1 g/l K2HPO4, 0.5 g/l KCl, 0.5 g/l MgSO4 7H2O, 0.01 g/l FeSO4 7H2O) (Samson et al., 2004a). […] The samples were incubated at 30° C. without shaking. After 7 days incubation, liquid was extracted from the medium by pressing the medium by hand using gloves. The extract was centrifuged at 10000 g, and the supernatant filtered through Whatman filter paper.
# […] The remaining activity (glucose tolerance) was measured spectrophotometrically by release of pNP at 50° C. reaction conditions, as described earlier. Triple determinations were performed. […] Triple determinations were performed.
# [2] = tested on: Cellic CTec beta-glucosidases, commercial preparation; assay: Glucose tolerance / product inhibition, Cellic CTec; type: biochemical
# Method: (§1) For testing glucose tolerance, 5 mM pNPG in NaCltrate buffer pH 4.8 was used as substrate with different glucose amounts added, ranging final glucose concentrations of 0-280 mM. The remaining activity (glucose tolerance) was measured spectrophotometrically by release of pNP at 50° C. reaction conditions, as described earlier. Triple determinations were performed. […] Triple determinations were performed.
# [3] = tested on: Novozym 188 beta-glucosidase (Aspergillus niger), commercial preparation; assay: Glucose tolerance / product inhibition, Novozym 188; type: biochemical
# Method: as §1
# [4] = molecular target: T1, Aspergillus saccharolyticus CBS 127449 beta-glucosidase BGL1, his-tagged, expressed in T. reesei, SEQ ID NO: 3 (without signal peptide SEQ ID NO: 4); assay: Glucose inhibition, purified BGL1; type: biochemical; conditions: pNPG as substrate (5 mM), 50° C., pH 4.8
# Method: as §1
# The his-tagged beta-glucosidases were purified on the ÄKTApurifier system with UNICORN software, using a HisTrap HP 5 ml […] column (GE Healthcare), run at a flow rate of 5 ml/min. The column was equilibrated with 5CV of binding buffer (20 mM sodium phosphate, 0.5M NaCl, pH 7.4), 100 ml sample was loaded onto the column, followed by washing with binding buffer till the absorbance reached the baseline. The his-tagged beta-glucosidases were eluted with 3CV elution buffer (20 mM sodium phosphate, 0.5M NaCl, 500 mM imidazole, pH 7.4) and the peak (1 CV) collected by monitoring the absorbance.
# (§2) Michaelis Menten kinetics, glucose tolerance, termostability, pH optimum, and cellodextrin hydrolysis were carried out as described in EXAMPLE 1.
# [5] = substrate: OC[C@H]1O[C@@H](O[C@H]2[C@H](O)[C@@H](O)C(O)O[C@@H]2CO)[C@H](O)[C@@H](O)[C@@H]1O; assay: purified protein, by the assay type; conditions: other: cellobiose as substrate, 50° C., pH 4.8, Hanes plot
# [6] = Hydrolysis of cellodextrins (cellohexaose); type: biochemical; conditions: 50 C, pH 4.8, 30 min time course
# Method: Hydrolysis of cellohexaose was carried out by mixing, in the ratio 1:1, 0.2 mM cellohexaose in 50 mM NaCltrate buffer pH 4.8 and enzyme diluted in 50 mM NaCltrate buffer pH 4.8 to a concentration of 3.7 μg/ml. The reaction was incubated at 50° C. and for a period of 30 min, 100 μl sample was placed on ice every 5 min. 100 μl 200 mM NaOH was added to terminate the reaction, and after another 1 fold dilution with 100 mM NaOH, the samples were analyzed at Dionex ICS3000 using gradient elution: 0-30% eluent B in 26 min followed by 2 min washing with 50% eluent B (0.5 M NaAcetate in 100 mM NaOH) and 5 min re-equilibrating with 100% eluent A (100 mM NaOH).
# as §2
# [7] = Thermostability: remaining beta-glucosidase activity after incubation at different temperatures; type: physicochemical
# Method: For testing the thermostability of the enzyme extract, aliquots of the extracts were incubated in PCR tubes in a thermocycler with temperature gradient option at 12 different temperatures from 48.5 to 67.0° C. for different time periods (0-4 hours) followed by assaying the activity at 50° C. with 5 mM pNPG in NaCltrate buffer pH 4.8 as substrate. The rate of denaturation, kD, was calculated as the slope of a semi-logaritmic plot of remaining activity vs incubation time. The half life was calculated as: T1/2=ln(2)/kD.
# as §2
# [8] = pH profile of beta-glucosidase activity on pNPG; type: biochemical; conditions: 50 C
# Method: For testing the pH optimum of the enzyme extracts, they were assayed at 50° C. with 5 mM pNPG in Citrate Phosphate buffer at different pH ranging from 2.65 to 7.25. Endoglucanase activity of Celluclast 1.5 L was assayed with AZO-CMC as described by the manufacturer (Megazyme), but testing the same pH range 2.65-7.25 as for the pNPG assay.
# as §2
# [9] = cellobiose as substrate, product and substrate in equal concentrations
# [10] = cellobiose as substrate, twice the concentration of glucose compared to cellobiose
# [11] = pNPG as substrate, product concentration 12 times higher than the substrate concentration
molecule,measurement,setting,value
OC[C@H]1OC(O)[C@H](O)[C@@H](O)[C@@H]1O (stereo partly drawn) [glucose],"glucose concentration at half the maximum activity, relative to substrate concentration",[1]; 5 mM pNPG as substrate,36 × the substrate concentration
same,remaining activity with glucose,[1]; [9],around 80%
same,remaining activity with glucose,[1]; [10],50%
same,remaining activity with glucose,[1]; [11],> 80%
same,"glucose concentration at half the maximum activity, relative to substrate concentration",[2]; 5 mM pNPG as substrate,23 × the substrate concentration
same,remaining activity with glucose,[2]; [11],approx 75%
same,"glucose concentration at half the maximum activity, relative to substrate concentration",[3]; 5 mM pNPG as substrate,12 × the substrate concentration
same,IC50,"[3]; 5 mM pNPG as substrate, 50° C., pH 4.8, calculated, read-out: glucose concentration at half the maximum activity",60 mM
same,remaining activity with glucose,[3]; [9],around 80%
same,remaining activity with glucose,[3]; [10],50%
same,remaining activity with glucose,[3]; [11],below 40%
same,product (glucose) concentration at reduction in activity to 50%,[4],30 times greater than the substrate concentration
B1,Km,[5],1900 µM
B2,mode of action in hydrolysis of cellohexaose,[6],hydrolyzes the different cellodextrins through exohydrolase action
same,activity retained after 2 hours of incubation,[7]; 60 C,more than 90%
same,activity retained after 4 hours of incubation,[7]; 60 C,more than 70%
same,activity retained after 2 hours of incubation,[7]; 67 C,approx. 10%
same,stability at 50 C,[7]; purified BGL1,stable throughout the incubation period
same,half-life,"[7]; purified BGL1, from 62 C up to 65 C",less than 2.5 hours
same,calculated half-life,"[7]; purified BGL1, temperatures above 60 C",approximately 6 hours
same,stability at temperatures up to 58 C,[7]; up to four hours of incubation,fairly stable
same,activity at basic conditions,[8],below 10%
same,activity within pH range 3.8-4.8,[8],above 90 % of maximum
same,pH optimum,[8],~4.2 pH
